What was measured:
Format in all cases: in vivo, Sprague-Dawley rats
[1] = test system: oxaliplatin-induced mechanical allodynia; test: CIPN model (Example 5): mechanical allodynia, paw withdrawal threshold with von Frey filaments after oxaliplatin; conditions: rat, oxaliplatin 10 mg/kg i.p.; 30 mg/kg p.o. each day of von Frey testing, tested 2 hr post dose
Protocol: The aim of this study was to investigate the effect of a single intraplantar treatment with Nanoparticles from Example 1 (NP1B) at the dose of 11 g/L, Nanoparticles from Example 2 (NP2B) at 53 g/L, Nanoparticles from Example 3 (NP20B) at 57 g/L, and Nanoparticles from Example 4 (NP20A) at 59 g/L, each in 20 μL of injection volume, on the mechanical allodynia (as assessed using von Frey) that occurs following systemic administration of oxaliplatin in the rat.
Experimental subjects: Seventy-two (72) adult male Sprague-Dawley rats were used for this study. […]
Static mechanical (tactile) allodynia evaluation: Measurement of paw withdrawal threshold (PWT) was achieved using calibrated (force; g) von-Frey monofilaments (Touch-Test Sensory Evaluator; Scientific Marketing Associates) applied to the plantar surface of the hind paw. Withdrawal threshold was determined by increasing and decreasing stimulus intensity and estimated using Dixon's up-down method. […]
Baseline readings for latency to withdrawal (sec) were assessed on three consecutive days (Day −3, Day −2 and Day −1). […]
Mechanical allodynia was subsequently re-assessed 2-3 times per week following injection, out to D26 post-oxaliplatin. […]

[2] = test system: oxaliplatin-induced mechanical allodynia; test: CIPN model (Example 6): dose effect, paw withdrawal threshold with von Frey filaments, left (treated) vs right (vehicle) paw; conditions: 30 mg/kg p.o. each day of von Frey testing; on any of the test days
Text: Animals were allowed to recover from transportation for at least one week before commencing experiments.
Data is presented as mean±SEM.

[3] = test system: STZ-induced mechanical allodynia; test: STZ-induced diabetic neuropathic pain study (Example 7): paw withdrawal threshold with von Frey filaments; conditions: 30 mg/kg p.o. 2 hr prior to each von Frey test

In the case of `CC(C)C[C@H](CN)CC(=O)O` [Pregabalin], the “PWT, allodynic response (positive control)” value [1] is reported as “rescued the allodynic response and recovered the PWT to the healthy baseline levels”, the “PWT levels (both paws) compared to ‘Vehicle/Vehicle’ group (not neuropathic)” value [2] is reported as “not significantly different from the ‘Vehicle/Vehicle’ group” and the “PWT levels compared to ‘STZ/Vehicle’ group” value [3] is reported as “significantly different from the ‘STZ/Vehicle’ group on all days tested”.

From patent US20260263374A1, “COMPOSITIONS OF NANOPARTICLES FOR TREATMENT OF NEUROPATHIC PAIN” (NANOBIOTIX S.A., priority 2022, published 2026)
